# Data: US8313740B2 (priority 2006, dated 2012)
# Tested on: MC38-HER-2 cells
# Conditions: mouse, in vivo
smiles,measurement,value
"CC(=O)O[C@@]12CO[C@@H]1C[C@H](O)[C@@]1(C)C(=O)[C@H](O)C3=C(C)[C@@H](OC(=O)[C@H](O)[C@@H](NC(=O)OC(C)(C)C)c4ccccc4)C[C@@](O)([C@@H](OC(=O)c4ccccc4)[C@H]21)C3(C)C [Docetaxel, docetaxel]","tumor growth, subset A",modest and transient delay of tumor growth
same,"tumor growth, subset B",had no effect on tumor growth
same,"tumor growth, subset C",had no effect on tumor growth
